Measurements published in patent US11000033B2, “Ketone or oxime compound, and herbicide” (NISSAN CHEMICAL CORPORATION, priority 2014, dated 2021).

Columns and labels:
[1] = test system: Avena fatua; assay: Test Example 4: herbicidal effect by soil treatment (symbol I); format: in vivo; details: for I: Avena fatua, herbicidal effect grade: 320 g/ha; for Herbicidal effect grade, I: Avena fatua: application herbicide amount 320 g/ha
Summary of the method: (§1)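 Seeds were sown in sterilized diluvial soil, covered with about 1.5 cm of soil, and the soil surface was sprayed with a water-diluted emulsion of the compound at a predetermined rate. Plants grew in a greenhouse at 25° C. to 30° C.; effects were scored visually 3 weeks after application.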

[2] = test system: Echinochloa crus-galli var. crus-galli; assay: Test Example 5: herbicidal effect by foliage application, plastic box (symbol H); format: in vivo; details: 320 g/ha, 3 weeks after application
Summary of the method: (§2)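 Leaf-applied emulsion, water-diluted to a preset herbicide dose, on two-week-old seedlings raised in a 25° C. to 30° C. greenhouse; injury rated at 3 weeks using earlier criteria.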

[3] = test system: rapeseed; assay: Test Example 4: effect on crop by soil treatment (symbol g); format: in vivo; details: for g: rapeseed, effect grade on crop: 320 g/ha; for Effect on crop grade, g: rapeseed: application herbicide amount 320 g/ha
Summary of the method: (§3)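 Soil-treatment setup: crop and weed seeds were spot-sown into sterilized diluvial soil, then buried beneath approximately 1.5 cm of it, and the boxes were housed in a 25–30° C. greenhouse.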

[4] = test system: Monochoria vaginalis; assay: Test Example 2: herbicidal activity, application during weed generation in submerged conditions (symbol C); format: in vivo; details: Table 23; application herbicide amount 320 g/ha; grade 0-5 by criteria of Test Example 1
Summary of the method: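 Treatment timing was the one- to two-leaf stage, with diluted emulsifiable compound dropped onto the paddy water (depth 4 cm) over alluvial soil. All three species grew from a mixed sowing in a 25° C. to 30° C. greenhouse. Injury was judged by eye 3 weeks on.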

[5] = test system: rice; assay: Test Example 4: effect on crop by soil treatment (symbol b); format: in vivo; details: for b: directly sowed rice plant, effect grade on crop: 320 g/ha; for Effect on crop grade, b: directly sowed rice plant: application herbicide amount 320 g/ha
Summary of the method: as §3

[6] = test system: corn; assay: Test Example 4: effect on crop by soil treatment (symbol c); format: in vivo; details: for c: corn, effect grade on crop: 320 g/ha; for Effect on crop grade, c: corn: application herbicide amount 320 g/ha
Summary of the method: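 Diluvial soil (sterilized) in boxes; seeds placed spot-wise alongside weed species; ~1.5 cm covering soil. Greenhouse, 25–30° C.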

[7] = test system: Alopecurus myosuroides; assay: Test Example 5: herbicidal effect by foliage application, plastic box (symbol J); format: in vivo; details: 320 g/ha, 3 weeks after application
Summary of the method: as §2

[8] = test system: soybean; assay: Test Example 5: effect on crop by foliage application, plastic box (symbol d); format: in vivo; details: 320 g/ha, 3 weeks after application
Summary of the method: (§4)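 Plants were raised from seed in a greenhouse (25° C. to 30° C.) after sowing in a plastic box of sterilized diluvial soil.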

[9] = test system: corn; assay: Test Example 5: effect on crop by foliage application, plastic box (symbol c); format: in vivo; details: 320 g/ha, 3 weeks after application
Summary of the method: as §4

[10] = test system: Digitaria ciliaris; assay: Test Example 4: herbicidal effect by soil treatment (symbol F); format: in vivo; details: for F: Digitaria ciliaris, herbicidal effect grade: 320 g/ha; for Herbicidal effect grade, F: Digitaria ciliaris: application herbicide amount 320 g/ha
Summary of the method: as §1

[11] = test system: Leptochloa chinensis; assay: Test Example 3: herbicidal effect by foliage application, Wagner pot (symbol D); format: in vivo; details: application herbicide amount 320 g/ha; for D (Leptochloa chinensis) herbicidal effect grade: Table 24
Summary of the method: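 The compound, formulated as an emulsion and diluted with water to a predetermined rate, is applied uniformly to leaves of two-week-old seedlings growing in submerged alluvial soil at 25–30 °C. Rice is included. Each plant is assessed 3 weeks later using defined criteria.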

SMILES	Herbicidal effect grade, C: Monochoria vaginalis [4]	Herbicidal effect grade, I: Avena fatua [1]	H: Echinochloa crus-galli var. crus-galli, herbicidal effect grade [2]	Effect on crop grade, g: rapeseed [3]	D (Leptochloa chinensis) herbicidal effect grade [11]	Effect on crop grade, b: directly sowed rice plant [5]	Effect on crop grade, c: corn [6]	J: Alopecurus myosuroides, herbicidal effect grade [7]	d: soybean, effect on crop grade [8]	c: corn, effect on crop grade [9]	Herbicidal effect grade, F: Digitaria ciliaris [10]	other results
CON=C(CC1CC(O)=C(c2c(C)cc(C)cc2C)C1=O)C(F)(F)F (stereo not drawn) [1-097]	0 (Herbicidal ratio of 5% or lower (almost no effect))											I: Avena fatua, herbicidal effect grade [1]: 1 (Herbicidal ratio of 5% or higher and lower than 20%); H: Echinochloa crus-galli var. crus-galli, herbicidal effect (criteria 0-5) [2]: 5 (Herbicidal ratio of 90% or more (almost completely withered)); melting point: 115 to 118 °C; g: rapeseed, effect grade on crop [3]: 3 (Herbicidal ratio of 40% or higher and lower than 70%); b: directly sowed rice plant, effect grade on crop [5]: 2 (Herbicidal ratio of 20% or higher and lower than 40%); c: corn, effect grade on crop [6]: 1 (Herbicidal ratio of 5% or higher and lower than 20%); J: Alopecurus myosuroides, herbicidal effect (criteria 0-5) [7]: 5 (Herbicidal ratio of 90% or more (almost completely withered)); d: soybean, effect on crop (criteria 0-5) [8]: 3 (Herbicidal ratio of 40% or higher and lower than 70%); c: corn, effect on crop (criteria 0-5) [9]: 5 (Herbicidal ratio of 90% or more (almost completely withered)); F: Digitaria ciliaris, herbicidal effect grade [10]: 0 (Herbicidal ratio of 5% or lower (almost no effect))
CCCON=C(C)CC1CC(O)=C(c2c(C)cc(C)cc2C)C1=O (stereo not drawn) [1-123]	2 (Herbicidal ratio of 20% or higher and lower than 40%)											I: Avena fatua, herbicidal effect grade [1]: 4 (Herbicidal ratio of 70% or higher and lower than 90%); H: Echinochloa crus-galli var. crus-galli, herbicidal effect (criteria 0-5) [2]: 5 (Herbicidal ratio of 90% or more (almost completely withered)); melting point: 123 to 126 °C; g: rapeseed, effect grade on crop [3]: 3 (Herbicidal ratio of 40% or higher and lower than 70%); herbicidal effect on D (Leptochloa chinensis), grade 0-5 [11]: 5 (Herbicidal ratio of 90% or more (almost completely withered)); b: directly sowed rice plant, effect grade on crop [5]: 5 (Herbicidal ratio of 90% or more (almost completely withered)); c: corn, effect grade on crop [6]: 3 (Herbicidal ratio of 40% or higher and lower than 70%); J: Alopecurus myosuroides, herbicidal effect (criteria 0-5) [7]: 5 (Herbicidal ratio of 90% or more (almost completely withered)); d: soybean, effect on crop (criteria 0-5) [8]: 2 (Herbicidal ratio of 20% or higher and lower than 40%); c: corn, effect on crop (criteria 0-5) [9]: 5 (Herbicidal ratio of 90% or more (almost completely withered)); F: Digitaria ciliaris, herbicidal effect grade [10]: 5 (Herbicidal ratio of 90% or more (almost completely withered))
COCCON=C(CC1CC(O)=C(c2c(C)cc(Br)cc2C)C1=O)C1CC1 (stereo not drawn) [9-019]	0 (Herbicidal ratio of 5% or lower (almost no effect))	0 (Herbicidal ratio of 5% or lower (almost no effect))	5 (Herbicidal ratio of 90% or more (almost completely withered))	0 (Herbicidal ratio of 5% or lower (almost no effect))	5 (Herbicidal ratio of 90% or more (almost completely withered))	5 (Herbicidal ratio of 90% or more (almost completely withered))	0 (Herbicidal ratio of 5% or lower (almost no effect))	4 (Herbicidal ratio of 70% or higher and lower than 90%)	0 (Herbicidal ratio of 5% or lower (almost no effect))	5 (Herbicidal ratio of 90% or more (almost completely withered))	0 (Herbicidal ratio of 5% or lower (almost no effect))	
COCCON=C(CC1CC(O)=C(c2c(C)cc(-n3cc(Cl)cn3)cc2C)C1=O)C1CC1 (stereo not drawn) [9-020]	0 (Herbicidal ratio of 5% or lower (almost no effect))	0 (Herbicidal ratio of 5% or lower (almost no effect))	5 (Herbicidal ratio of 90% or more (almost completely withered))	0 (Herbicidal ratio of 5% or lower (almost no effect))	5 (Herbicidal ratio of 90% or more (almost completely withered))	3 (Herbicidal ratio of 40% or higher and lower than 70%)	0 (Herbicidal ratio of 5% or lower (almost no effect))	5 (Herbicidal ratio of 90% or more (almost completely withered))	1 (Herbicidal ratio of 5% or higher and lower than 20%)	5 (Herbicidal ratio of 90% or more (almost completely withered))	4 (Herbicidal ratio of 70% or higher and lower than 90%)	
COCCON=C(CC1CC(O)=C(c2c(C)cc(-n3cc(Cl)cn3)cc2C)C1=O)C(C)C (stereo not drawn) [9-022]	0 (Herbicidal ratio of 5% or lower (almost no effect))	0 (Herbicidal ratio of 5% or lower (almost no effect))	5 (Herbicidal ratio of 90% or more (almost completely withered))	0 (Herbicidal ratio of 5% or lower (almost no effect))	5 (Herbicidal ratio of 90% or more (almost completely withered))	4 (Herbicidal ratio of 70% or higher and lower than 90%)	1 (Herbicidal ratio of 5% or higher and lower than 20%)	2 (Herbicidal ratio of 20% or higher and lower than 40%)	0 (Herbicidal ratio of 5% or lower (almost no effect))	2 (Herbicidal ratio of 20% or higher and lower than 40%)	5 (Herbicidal ratio of 90% or more (almost completely withered))	
CC#Cc1cc(C)c(C2=C(O)CC(CC(=NOCCOC)C(C)C)C2=O)c(C)c1 (stereo not drawn) [9-023]	1 (Herbicidal ratio of 5% or higher and lower than 20%)	2 (Herbicidal ratio of 20% or higher and lower than 40%)	5 (Herbicidal ratio of 90% or more (almost completely withered))	4 (Herbicidal ratio of 70% or higher and lower than 90%)	5 (Herbicidal ratio of 90% or more (almost completely withered))	5 (Herbicidal ratio of 90% or more (almost completely withered))	3 (Herbicidal ratio of 40% or higher and lower than 70%)	5 (Herbicidal ratio of 90% or more (almost completely withered))	0 (Herbicidal ratio of 5% or lower (almost no effect))	5 (Herbicidal ratio of 90% or more (almost completely withered))	5 (Herbicidal ratio of 90% or more (almost completely withered))	
CC(CC1CC(O)=C(c2c(C)cc(-c3ccc(Cl)cc3)cc2C)C1=O)=NOCC(F)(F)F (stereo not drawn) [9-024]	1 (Herbicidal ratio of 5% or higher and lower than 20%)	3 (Herbicidal ratio of 40% or higher and lower than 70%)	5 (Herbicidal ratio of 90% or more (almost completely withered))	0 (Herbicidal ratio of 5% or lower (almost no effect))	5 (Herbicidal ratio of 90% or more (almost completely withered))	5 (Herbicidal ratio of 90% or more (almost completely withered))	0 (Herbicidal ratio of 5% or lower (almost no effect))	5 (Herbicidal ratio of 90% or more (almost completely withered))	0 (Herbicidal ratio of 5% or lower (almost no effect))	5 (Herbicidal ratio of 90% or more (almost completely withered))	5 (Herbicidal ratio of 90% or more (almost completely withered))	
